For one data set, the system named is K562 cells. As to the kind of experiment: Cell Titer Glo 2.0 cell viability assay in K562 cells. The settings on record: 72 hours. (In ATP-based viability assays light output follows the ATP content of the culture.)
The next data set concerns Target C mRNA. Description: Gene panel canonical junction qPCR assay, Target C CJ mRNA decrease. In kind it is cell-based. The settings on record: Homo sapiens, canonical junction qPCR, read-out: Target C IC50 (decrease in CJ mRNA levels). In outline: (§1)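 IC50 values describe loss of canonical-junction transcript, fitted by 4-parameter logistic to percent response derived from fixed ΔCt windows. Read-out: RT-qPCR on lysates of compound-treated K562 or A673 cells, probes overlapping the exon junction, ΔΔCt versus housekeeping gene and DMSO control.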
Background: Quantitative PCR measures a nucleic acid by following its amplification.

The subject of another data set is HiBiT-tagged MYB protein. Description: HiBiT protein abundance assay, MYB (K562 HiBiT knock-in cells). In kind it is cell-based, human. The note with it: 24 hours. The procedure, abridged:
(§2)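 K562 cells with endogenous HiBiT knock-in tag, 10-point 3-fold dilutions (top 10 μM final, ≤0.25% DMSO), 24 h at 37 °C. Lytic Nano-Glo HiBiT luminescence, normalized to DMSO and unmodified K562 baselines; IC50 is concentration giving 50% protein abundance from four-parameter fit.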

In another data set the test system is Target C. As to the kind of experiment: HiBiT protein abundance assay, Target C (K562 HiBiT knock-in cells). In kind it is cell-based, human. The note with it: 24 hours. In outline: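 K562 knock-in cells (10000/well, IMDM+1% FBS) treated 24 h at 37 °C with 10-point 3-fold dilutions, top final 10 μM, DMSO ≤0.25%. HiBiT lytic luminescence read; response normalized to unmodified K562 and DMSO-treated controls. IC50 interpolated at 50% abundance by four-parameter logistic fit.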
(In general: HiBiT is a short tag that completes a luciferase, so light tracks the accessible tagged protein.)

The test system of the next data set is SMN2 mRNA. As to the kind of experiment: Gene panel canonical junction qPCR assay, SMN2 CJ mRNA decrease. In kind it is cell-based, human. The settings on record: Homo sapiens, canonical junction qPCR, read-out: SMN2 IC50 (decrease in CJ mRNA levels). The procedure, abridged:
as §1

For the next data set, the system named is HiBiT-tagged HTT protein. As to the kind of experiment: HiBiT protein abundance assay, HTT (K562 HiBiT knock-in cells). In kind it is cell-based, human. The note with it: 24 hours. In outline:
as §2

A further data set concerns MYB mRNA. As to the kind of experiment: Gene panel canonical junction qPCR assay, MYB CJ mRNA decrease. In kind it is cell-based, human. The note with it: Homo sapiens, canonical junction qPCR, read-out: MYB IC50 (decrease in CJ mRNA levels). The procedure, abridged: as §1
The test system of another data set is HTT mRNA. As to the kind of experiment: Gene panel canonical junction qPCR assay, HTT CJ mRNA decrease. In kind it is cell-based, human. The settings on record: Homo sapiens, canonical junction qPCR, read-out: HTT IC50 (decrease in CJ mRNA levels). The procedure, abridged:
as §1

Structures are written as SMILES.

Take `Cc1cn2cc(NC(=O)c3ccc(N4CCN[C@@H](CF)C4)c4nccnc34)cc(F)c2n1` [Compound 367]: the Viability entry with K562 cells is listed as “C (C represents 1000-9999 nM)”. Also, the IC50 (as a rule, the midpoint of a concentration-inhibition curve) in the data set on Target C mRNA lay in the range of 1000 to 10000 nM; in the data set on HiBiT-tagged MYB protein it was 1000 to 10000 nM; in the data set on Target C, 1000 to 10000 nM; in the data set with SMN2 mRNA it was 100 to 1000 nM; with HiBiT-tagged HTT protein, 1000 to 10000 nM; in the data set with MYB mRNA, 1000 to 10000 nM. Further, in the data set on HTT mRNA, the IC50 lay within 1000 to 10000 nM.

Consider `Cc1cn2cc(NC(=O)c3ccc(N4CCNC(C)(CO)C4)c4nccnc34)cc(F)c2n1` (stereo not drawn) [Compound 368], for which the Viability entry in the data set on K562 cells is reported as “B (B represents 100-1000 nM)”. The IC50 in the data set on Target C mRNA was 1000 to 10000 nM; in the data set with HiBiT-tagged MYB protein, below 100 nM; with Target C, 1000 to 10000 nM; with SMN2 mRNA, below 100 nM; in the data set with HiBiT-tagged HTT protein, 1000 to 10000 nM; in the data set on MYB mRNA it was below 100 nM. The half-maximal inhibitory concentration (IC50) in the data set with HTT mRNA lay in the range of 1000 to 10000 nM.

Regarding `Cc1cn2cc(NC(=O)c3ccc(N4CCN(CCO)C5(CC5)C4)c4nccnc34)cc(F)c2n1` [Compound 369], in the data set with K562 cells, the Viability result was “C (C represents 1000-9999 nM)”. Besides, the concentration for half-maximal inhibition (IC50) in the data set on Target C mRNA is 1000 to 10000 nM; with HiBiT-tagged MYB protein, 100 to 1000 nM; in the data set with Target C it was 1000 to 10000 nM; in the data set with SMN2 mRNA, below 100 nM; with HiBiT-tagged HTT protein it was 1000 to 10000 nM; in the data set with MYB mRNA it was 100 to 1000 nM. For the same compound, the half-inhibitory concentration (IC50) in the data set with HTT mRNA was in the range of 1000 to 10000 nM.

These data come from patent US20240409536A1, “COMPOUNDS AND METHODS FOR MODULATING SPLICING” (REMIX THERAPEUTICS INC., priority 2021, published 2024).
